Results as given in paper PMC3458005, “Involvement of the Azotobacter vinelandii Rhodanese-Like Protein RhdA in the Glutathione Regeneration Pathway” (PLoS ONE, 2012).

Key:
[1] = tested on: N[C@@H](CCC(=O)N[C@@H](C[S])C(=O)NCC(=O)O)C(=O)O; test: purified protein; conditions: pH 7.4; 25.0 °C
[2] = biological target: T1, RhdA (Azotobacter vinelandii, UniProt P52197); test: intrinsic tryptophan fluorescence titration; type: binding
T1 construct: His-tagged (pQER1) from E. coli BL21[pRep4], Ni-NTA purified; cyanide-treated (sulfane sulfur-deprived); only cysteine Cys230
T1 sequence (P52197 whole entry): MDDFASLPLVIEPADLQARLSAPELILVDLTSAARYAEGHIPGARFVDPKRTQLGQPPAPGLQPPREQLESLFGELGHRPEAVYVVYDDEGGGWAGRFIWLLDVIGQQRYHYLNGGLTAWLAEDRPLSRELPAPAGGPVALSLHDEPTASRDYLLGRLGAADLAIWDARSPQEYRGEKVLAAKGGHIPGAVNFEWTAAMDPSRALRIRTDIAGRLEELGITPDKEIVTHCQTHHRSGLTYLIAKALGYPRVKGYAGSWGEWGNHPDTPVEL

| Molecule | Km [1] [µM] | Kd [2] [µM] |
| --- | --- | --- |
| RhdA (Azotobacter vinelandii) | 560 ± 110 | – |
| O=S(O)(O)=S [thiosulfate] | – | 0.76 ± 0.01 |
| N[C@@H](CCC(=O)N[C@@H](C[S])C(=O)NCC(=O)O)C(=O)O [GS^•, glutathione thiyl radical] | – | ~11 |
